The source of these data is patent US6583180B2, “Glucocorticoid receptor modulators” (Abbott Laboratories, priority 2001, dated 2003).

Assay [1] addresses T1, Human glucocorticoid receptors (Homo sapiens, UniProt P04150).
T1 construct: made in house; host or cells: Sf9 insect cells, recombinant baculovirus (BAC-TO-BAC)
T1 sequence (P04150 1-777): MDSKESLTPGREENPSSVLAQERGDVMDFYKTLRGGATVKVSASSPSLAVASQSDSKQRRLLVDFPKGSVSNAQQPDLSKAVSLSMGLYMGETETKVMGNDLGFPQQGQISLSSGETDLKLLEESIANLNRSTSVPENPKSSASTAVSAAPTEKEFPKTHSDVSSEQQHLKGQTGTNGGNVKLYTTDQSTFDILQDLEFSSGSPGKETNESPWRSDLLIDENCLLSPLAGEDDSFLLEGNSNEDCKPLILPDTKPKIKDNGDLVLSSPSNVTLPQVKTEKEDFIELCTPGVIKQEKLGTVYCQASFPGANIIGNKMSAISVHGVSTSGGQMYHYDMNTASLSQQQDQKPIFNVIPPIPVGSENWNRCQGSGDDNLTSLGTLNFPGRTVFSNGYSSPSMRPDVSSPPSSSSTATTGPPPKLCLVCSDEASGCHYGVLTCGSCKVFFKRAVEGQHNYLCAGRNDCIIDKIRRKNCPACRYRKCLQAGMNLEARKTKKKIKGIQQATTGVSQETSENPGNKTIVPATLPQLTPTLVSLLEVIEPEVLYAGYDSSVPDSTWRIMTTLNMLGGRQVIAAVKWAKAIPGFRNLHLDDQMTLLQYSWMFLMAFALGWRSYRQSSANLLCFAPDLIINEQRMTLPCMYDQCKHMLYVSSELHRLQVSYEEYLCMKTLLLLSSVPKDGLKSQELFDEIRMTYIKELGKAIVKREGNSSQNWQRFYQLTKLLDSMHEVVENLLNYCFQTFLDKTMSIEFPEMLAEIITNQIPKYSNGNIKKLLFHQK
Nature of the assay: Radioligand filter binding assay, displacement of 3[H]-dexamethasone from hGR. As to conditions: read-out: GR Binding (% Inhibition at 1.7 μM). The method, boiled down: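 Recombinant hGR extract from baculovirus-infected Sf9 cells (final ~1 nM receptor) incubated with ³H-dexamethasone and test compound dilutions in duplicate, EDTA/phosphate pH 8 buffer with MTG, overnight (15-20 h) at +4° C. Bound label collected on PEI-treated GF/B filters and scintillation-counted; IC50 from four-parameter fit of corrected cpm.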

The target of assay [2] is T2, progesterone receptor (PR) (Homo sapiens, UniProt P06401).
T2 sequence (P06401 1-933): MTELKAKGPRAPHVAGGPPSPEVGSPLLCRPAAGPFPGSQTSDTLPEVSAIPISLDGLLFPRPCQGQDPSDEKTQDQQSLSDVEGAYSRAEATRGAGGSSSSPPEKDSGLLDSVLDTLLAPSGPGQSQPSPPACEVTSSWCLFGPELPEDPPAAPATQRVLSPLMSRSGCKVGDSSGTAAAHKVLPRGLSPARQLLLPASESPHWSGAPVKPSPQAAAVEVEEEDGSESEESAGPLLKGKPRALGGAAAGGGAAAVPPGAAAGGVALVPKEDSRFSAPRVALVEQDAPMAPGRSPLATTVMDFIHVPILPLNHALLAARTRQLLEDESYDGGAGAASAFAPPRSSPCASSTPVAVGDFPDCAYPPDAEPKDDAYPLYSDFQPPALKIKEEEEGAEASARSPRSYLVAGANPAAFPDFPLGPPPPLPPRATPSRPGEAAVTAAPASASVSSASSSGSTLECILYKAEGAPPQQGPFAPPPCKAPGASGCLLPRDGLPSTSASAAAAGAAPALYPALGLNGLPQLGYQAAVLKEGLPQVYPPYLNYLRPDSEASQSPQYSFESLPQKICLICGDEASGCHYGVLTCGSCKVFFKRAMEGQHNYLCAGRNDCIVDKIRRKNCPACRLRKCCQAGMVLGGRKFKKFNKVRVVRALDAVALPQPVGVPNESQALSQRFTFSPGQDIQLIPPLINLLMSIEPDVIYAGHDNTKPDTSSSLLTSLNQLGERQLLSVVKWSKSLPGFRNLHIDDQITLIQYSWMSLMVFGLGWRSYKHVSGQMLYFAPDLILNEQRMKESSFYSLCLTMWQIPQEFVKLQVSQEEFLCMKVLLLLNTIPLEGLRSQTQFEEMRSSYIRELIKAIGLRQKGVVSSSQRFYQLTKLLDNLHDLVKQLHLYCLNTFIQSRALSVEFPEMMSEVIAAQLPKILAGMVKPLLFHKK
Nature of the assay: Radioligand binding assay for progesterone receptor (similar protocol).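 Further: radioligand binding measured with cytosol preparations containing the human progesterone receptor.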
From the text: Methods for Radiolipand Binding Studies with Human Glucocorticoid and Progesterone Receptor Cytosol

A value given as a limit tells only on which side of the number the result lay.

The term inhibition denotes the percentage by which the read-out fell short of the control. Broadly, the IC50 is the midpoint of a concentration-inhibition curve. With `C=CCOc1ccc(CN(Cc2ccc(F)cc2F)c2cccc(NS(C)(=O)=O)c2C)cc1` [Example 20, N-{3-[[4-(allyloxy)benzyl](2,4-difluorobenzyl)amino]-2-methylphenyl}methanesulfonamide], the inhibition at 1.7 µM in assay [1] worked out at 84.2%. In assay [2], this compound returned a concentration for half-maximal inhibition (IC50) of 430 nM.

On to `Cc1c(NS(C)(=O)=O)cccc1N(Cc1ccccc1F)Cc1ccc(F)cc1F` [Example 23, N-{3-[(2,4-difluorobenzyl)(2-fluorobenzyl)amino]-2-methylphenyl}methanesulfonamide], for which the inhibition at 1.7 µM in assay [1] is 92%. The IC50 in assay [2] is 920 nM.

Take `Cc1c(NS(C)(=O)=O)cccc1N(Cc1ccc(F)cc1F)Cc1ccccc1C#N` [Example 25, N-{3-[(2-cyanobenzyl)(2,4-difluorobenzyl)amino]-2-methylphenyl}methanesulfonamide]: the inhibition at 1.7 µM in assay [1] was 87.5%. This compound registered a half-inhibitory concentration (IC50) in assay [2] of 1790 nM.

Regarding `Cc1c(NS(C)(=O)=O)cccc1N(Cc1ccc(OCC=Cc2ccccc2)cc1)Cc1ccc(F)cc1F` [Example 33, N-{3-[(2,4-difluorobenzyl)(4-{[3-phenyl-2-propenyl]oxy}benzyl)amino]-2-methylphenyl}methanesulfonamide], the inhibition at 1.7 µM in assay [1] worked out at 92.7%. This compound also gave a concentration for half-maximal inhibition (IC50) in assay [2] of over 10000 nM.

As to `Cc1c(NS(C)(=O)=O)cccc1N(Cc1ccc(OCc2ccccc2)cc1)Cc1ccc(F)cc1F` [Example 34, N-{3-[[4-(benzyloxy)benzyl](2,4-difluorobenzyl)amino]-2-methylphenyl}methanesulfonamide], the inhibition at 1.7 µM in assay [1] stood at 90%. In assay [2], this compound gave an IC50 of over 10000 nM.

Take `COc1ccc(NS(C)(=O)=O)cc1N(Cc1ccccc1Br)Cc1ccccc1Br` [Example 36, N-{3-[bis(2-bromobenzyl)amino]-4-methoxyphenyl}methanesulfonamide]: the inhibition at 1.7 µM in assay [1] stood at 85.5%. In assay [2], this compound displayed an IC50 of 1200 nM.

With `CCOC(=O)/C=C/c1c(NS(C)(=O)=O)cccc1N(Cc1ccccc1)Cc1ccccc1` [Example 40, N-[3-(dibenzylamino)-2-((E)-3-ethoxy-3-oxo-1-propenyl)phenyl]methanesulfonamide], the inhibition at 1.7 µM in assay [1] stood at 87%. Further, in assay [2], the IC50 was over 10000 nM.

Consider `CCCOc1ccc(CN(Cc2ccc(F)cc2F)c2cccc(NS(C)(=O)=O)c2C)cc1` [Example 43, N-{3-[(2,4-difluorobenzyl)(4-propoxybenzyl)amino]-2-methylphenyl}methanesulfonamide], for which, in assay [1], the inhibition at 1.7 µM stood at 91.1%. The IC50 in assay [2] came out at 660 nM.

Take `COCCOc1cc(Oc2ccc(CN(Cc3ccccc3)c3cccc(NS(C)(=O)=O)c3C)cc2)ccc1CCCC(=O)O` [Example 63]: the inhibition at 1.7 µM in assay [1] is 96.2%. Also, the IC50 in assay [2] amounted to 648 nM.

For `CCOC(=O)CCCc1ccc(Oc2ccc(CN(Cc3ccccc3)c3cccc(NS(C)(=O)=O)c3C)cc2)cc1` [Example 64, ethyl 4-(4-{4-[(benzyl{2-methyl-3-[(methylsulfonyl)amino]phenyl}amino)methyl]phenoxy}phenyl)butanoate], the inhibition at 1.7 µM in assay [1] amounted to 93.5%. Besides, the IC50 in assay [2] is 1180 nM.

Turning to `Cc1c(NS(C)(=O)=O)cccc1N(Cc1ccccc1)Cc1ccc(Oc2cccc(CCCO)c2)cc1` [Example 65, N-[3-(benzyl{4-[3-(3-hydroxypropyl)phenoxy]benzyl}amino)-2-methylphenyl]methanesulfonamide], the inhibition at 1.7 µM in assay [1] was determined as 94%. In assay [2], the IC50 was 633 nM.

Regarding `COC(=O)c1cccc(Oc2ccc(CN(Cc3ccc(F)cc3F)c3cccc(NS(C)(=O)=O)c3C)cc2)c1` [Example 67, methyl 3-{4-[((2,4-difluorobenzyl){2-methyl-3-[(methylsulfonyl)amino]phenyl}amino)methyl]phenoxy}benzoate], the inhibition at 1.7 µM in assay [1] is 89%. Also, the 50% inhibitory concentration (IC50) in assay [2] worked out at 667 nM.

For the compound `COCCOCCOc1cccc(Oc2ccc(CN(Cc3ccccc3)c3cccc(NS(C)(=O)=O)c3C)cc2)c1` [Example 69, N-{3-[benzyl(4-{3-[2-(2-methoxyethoxy)ethoxy]phenoxy}benzyl)amino]-2-methylphenyl}methanesulfonamide], the inhibition at 1.7 µM in assay [1] is 86.9%. The compound further came in with an IC50 in assay [2] of 122 nM.

Regarding `Cc1c(NS(C)(=O)=O)cccc1N(Cc1ccccc1)Cc1ccc(Oc2cccc(OCCCNS(C)(=O)=O)c2)cc1` [Example 71, N-[3-(3-{4-[(benzyl{2-methyl-3-[(methylsulfonyl)amino]phenyl}amino)methyl]phenoxy}phenoxy)propyl]methanesulfonamid], the inhibition at 1.7 µM in assay [1] is 95.2%. The IC50 in assay [2] amounted to 537 nM.

Consider `Cc1c(NS(C)(=O)=O)cccc1N(Cc1ccccc1)Cc1ccc(Oc2cccc(OCCCN(C)C)c2)cc1` [Example 72, N-{3-[benzyl(4-{3-[3-(dimethylamino)propoxy]phenoxy}benzyl)amino]-2-methylphenyl}methanesulfonamide], for which the inhibition at 1.7 µM in assay [1] amounted to 92%. The IC50 in assay [2] worked out at 462 nM.

As for `Cc1c(NS(C)(=O)=O)cccc1N(Cc1ccc(Oc2ccc(CCCC(=O)NCCCN3CCCC3=O)cc2)cc1)Cc1ccc(F)cc1F` [Example 75, 4-(4-{4-[((2,4-difluorobenzyl){2-methyl-3-[(methylsulfonyl)amino]phenyl}amino)methyl]phenoxy}phenyl)-N-[3-(2-oxopyrrolidin-1-yl)propyl]butanamide], in assay [1], the inhibition at 1.7 µM turned out to be 98.3%. The IC50 in assay [2] worked out at 2350 nM.

For the compound `Cc1c(NS(C)(=O)=O)cccc1N(Cc1ccc(Oc2ccc(CCC(=O)O)cc2)cc1)Cc1ccccc1Br` [Example 76, 3-(4-{4-[((2-bromobenzyl){2-methyl-3-[(methylsulfonyl)amino]phenyl}amino)methyl]phenoxy}phenyl)propanoic acid], the inhibition at 1.7 µM in assay [1] is 96.5%. Further, the IC50 in assay [2] is 149 nM.

`Cc1c(NS(C)(=O)=O)cccc1N(Cc1ccccc1)Cc1ccc(Oc2ccc(Br)c(OCC(=O)O)c2)cc1` [Example 77, (5-{4-[(benzyl{2-methyl-3-[(methylsulfonyl)amino]phenyl}amino)methyl]phenoxy}-2-bromophenoxy)acetic acid]: the inhibition at 1.7 µM in assay [1] turned out to be 97.1%. In assay [2], this compound came in with an IC50 of 249 nM.

In the case of `Cc1c(NS(C)(=O)=O)cccc1N(Cc1ccccc1)Cc1ccc(Oc2cccc(OCCNC(=O)CCC(=O)O)c2)cc1` [Example 78, 4-{[2-(3-{4-[(benzyl{2-methyl-3-[(methylsulfonyl)amino]phenyl}amino)methyl]phenoxy}phenoxy)ethyl]amino}-4-oxobutanoic acid], the inhibition at 1.7 µM in assay [1] is 97.3%. In assay [2], this compound returned an IC50 of over 1000 nM.

Take `Cc1c(NS(C)(=O)=O)cccc1N(Cc1ccccc1)Cc1ccc(Oc2cccc(OCCNC(=O)CCCC(=O)O)c2)cc1` [Example 79, 5-{[2-(3-{4-[(benzyl{2-methyl-3-[(methylsulfonyl)amino]phenyl}amino)methyl]phenoxy}phenoxy)ethyl]amino}-5-oxopentanoic acid]: the inhibition at 1.7 µM in assay [1] was found to be 97.2%. In assay [2], this compound showed an IC50 of 1100 nM.

Turning to `Cc1c(NS(C)(=O)=O)cccc1N(Cc1ccccc1)Cc1ccc(Oc2cccc(OCCNS(C)(=O)=O)c2)cc1` [Example 81, N-[2-(3-{4-[(benzyl{2-methyl-3-[(methylsulfonyl)amino]phenyl}amino)methyl]phenoxy}phenoxy)ethyl]methanesulfonamide], in assay [1], the inhibition at 1.7 µM worked out at 96.2%. In assay [2], this compound yielded an IC50 of 622 nM.
